Values of other authors, collected in US20260355131A1, “SPRAY-DRIED COMPOSITIONS COMPRISING ADRENERGIC RECEPTOR MODULATORS” (OREXO AB, priority 2023, published 2026).

Assays:
[1] = free acid/base compound
[2] = in solution

- aqueous solubility [1]: more limited aqueous solubility
- pH below which epinephrine is stable [2]: below 4
- optimum pH balancing racemization and oxidation ([2]; Connors et al): 3.0-3.8
SMILES: CNC[C@H](O)c1ccc(O)c(O)c1 [epinephrine]
